Patent publication US9910031B2, “Compositions and methods for modulating c-Rel-dependent cytokine production” (Synta Pharmaceuticals Corporation, priority 2003, dated 2018)

Legend:
ICSBP = experiment: Western blot of ICSBP in THP-1 nuclear extracts (Ets-2 DNA element beads); type: cell-based, human
Excerpt: Of the transcription factors that have been analyzed, two factors, ICSBP and c-Rel, seem to be affected by Compound 1/Compound 2 treatment. ICSBP binds indirectly to the Ets-2 site. The primary NFκB trans-activator for IL-12 is the c-Rel/p50 heterodimer. Other dimers (p65/p50 and p50/p50) either lack activity or have inhibitory functions. Thus, c-Rel plays a role in IL-12 transcription as a result of both activation through NFκB and its interaction with ICSBP. […] The membranes were blocked with 5% milk in TBST buffer and then incubated with anti-c-Rel, anti-p65, anti-p50, anti-ICSBP or anti-PU-1 antibody (all the antibodies were purchased from Santa Cruz) at a dilution of 1:500 for 1 h at room temperature or overnight at 4° C. The membranes were washed and incubated with Horseradish Peroxidase-conjugated anti-rabbit IgG or anti-mouse IgG (Amersham, England) at a dilution of 1:2000 at room temperature for 1 h.
The transcription factor ICSBP binds to the Ets-2 element indirectly through binding to PU-1. Nuclear extracts were bound to Ets-2 DNA element beads, the beads isolated to separate bound from free protein, and the proteins analyzed on Western blots using antibodies to either ICSBP or PU-1. Conjugation of Ets-2 DNA to beads was accomplished by the following method. Biotinylated DNA fragment encompassing the IL-12 p40 Ets-2 site (−292 to −196) were synthesized from the 1.3 kb wild-type human IL-12 p40 reporter by PCR using a biotinylated primer as detailed in The Journal of Immunology, 2000, vol 165. pages 271-279. PCR products were purified by the Qiaquick Kit (Qiagen, Chatsworth, Calif.). Two μg of biotinylated DNA were conjugated to 100 μl of streptavidin-hound magnetic beads (Dynabeads, M280, Dynal, Lake Success, N.Y.) in buffer containing 10 mM Tris-HCL, pH 8.0, 1 mM EDTA, 0.1 M NaCl. […] Eluted materials were separated by 10% SDS-PAGE and detected by immunoblot analysis using anti-ICSBP or anti-PU-1 antibody.

IL-12 p40 = IL-12 p40 production in human monocyte-derived dendritic cells; type: cell-based; settings: up to 10 μM
Method: Although c-Rel has a role in the expression of both p35 and p40 in monocytes and macrophages as well as p35 in dendritic cells (DCs), p40 expression in dendritic cells is c-Rel-independent (Grumont et al. J. Exp. Med. 2001; 194:1021-1031). If Compound 2 is acting through c-Rel, this drug should inhibit both p40 and p70 production by PBMCs. However, Compound 2 should inhibit the production of p70 (through inhibition of p35) in DCs, but should not inhibit p40 in DCs. This was tested by generating monocyte-derived dendritic cells according to the following method. Human PBMC at 1×10^7 cells/ml were suspended in serum-free DMEM and incubated for 2 hrs at 37° C. under 5% CO2. The non-adherent cells then were removed by washing with PBS. The adherent cells were cultured in RPMI-1640 medium containing rhIL-4 (100 U/ml) and rhGM-CSF (1000 U/ml) for 6-7 days. The half volume fresh media and full-volume fresh cytokines were added every other day. The cells were then primed with IFN-γ (100 U/ml) and followed by 0.01% SAC or 1 μg/ml LPS, in the presence of different concentrations of Compound 2 or other compounds. The test compounds were prepared in DMSO and the final DMSO concentration was adjusted to 0.25% in all cultures, including the compound-free control. Cell-free supernatants were taken 18 h later for the measurement of cytokines.

p65 = experiment: ELISA based transcriptional factor-DNA binding activity assay, THP-1 nuclear extracts, p65; type: cell-based, human; settings: IFN-γ/LPS, 500 nm, 3 hrs
Method: Nuclear extracts were prepared from IFN-γ-primed THP-1 cells that had been treated with or without SAC and incubated in the presence or absence of 1 μM Compound 1 or 10 mM ASA. Isolation of nuclear extracts was accomplished by first suspending THP-1 cells in 20 volumes of buffer A containing 10 mM KCl, 10 mM HEPES (pH 7.9), 1 mM MgCl2, 1 mM dithiothreitol (DTT), 0.1% Nonidet p40 (NP-40), and 0.5 mM phenylmethylsulfonyl fluoride (PMSF) and then homogenizing and centrifuging at 10,000 rpm at 4° C. for 5 min. Nuclear pellets were then suspended in buffer C containing 400 mM NaCl, 20 mM HEPES pH 7.9), 15 mM MgCl2, 0.2 mM EDTA, 1 mM DTT, 25% glycerol, 1 mM PMSF, and 10 μg of leupeptin, 20 μg of pepstatin, and 10 μg of antipain per ml, incubated for 30 min at 4° C., and centrifuge at 14,000 rpm for […]. The supernatants were dialyzed against buffer D containing 100 mM NaCl, 20 mM HEPES (pH 7.9), 20% glycerol, 1 mM PMSF, and 1 mM DTT.
To understand the action of Compound 2 in NF-κB binding, several NF-κB family members, p50, c-Rel and p65 were investigated using an ELISA based transcriptional factor-DNA binding activity assay system. […]

SMILES	amount of ICSBP protein in nuclear extracts (FIG. 5) (ICSBP; THP-1 cells)	p40 production in human DCs (IL-12 p40)	binding activity of p65 (p65)	ICSBP expression (ICSBP)	ICSBP in the nuclei of treated cells (ICSBP)
C(=NNc1nc(OCCc2ccccn2)nc(N2CCOCC2)n1)c1c[nH]c2ccccc12 [Compound 1, N-(1H-indol-3-ylmethylene)-N′-[4-morpholin-4-yl-6-(2-pyridin-2-yl-ethoxy)-[1,3,5]triazin-2-yl]-hydrazine]	significant reduction	–	–	–	–
Cc1cccc(C=NNc2cc(N3CCOCC3)nc(OCCc3ccccn3)n2)c1 [Compound 2, N-(3-methyl-benzylidene)-N′-[6-morpholin-4-yl-2-(2-pyridin-2-yl-ethoxy)-pyrimidin-4-yl]-hydrazine]	–	no inhibition	increased binding activity	reduced	reduced
